{"source": "patent CN114106008A", "about": "“一种从丹参中提取分离的二萜醌类化合物及其方法和应用” (Chengdu Push Bio Technology Co ltd, priority 2021, dated 2022)", "key": {"[1]": {"system": "human myelomonocytic leukemia cells MV-4-11 [人髓性单核细胞白血病细胞 MV-4-11]", "test": "MTT proliferation inhibition, MV4-11 cells, 72 h", "format": "cell-based"}, "[2]": {"system": "human diffuse large B lymphoma cells TMD-8 [人弥漫大B淋巴瘤细胞TMD-8]", "test": "MTT proliferation inhibition, TMD-8 cells, 72 h", "format": "cell-based"}, "[3]": {"system": "human acute myeloid leukemia cells MOLM-13 [人急性髓系白血病细胞MOLM-13]", "test": "MTT proliferation inhibition, MOLM-13 cells, 72 h", "format": "cell-based"}, "[4]": {"system": "human large cell lung cancer cells H460 [人大细胞肺癌细胞 H460]", "test": "MTT proliferation inhibition, H460 cells, 72 h", "format": "cell-based"}, "[5]": {"system": "human liver cancer cells HEPG-2 [人肝癌细胞HEPG-2]", "test": "MTT proliferation inhibition, HEPG-2 cells, 72 h", "format": "cell-based", "details": "0.625-20 μg/ml"}, "[6]": {"system": "human cervical cancer cells HELA [人宫颈癌细胞HELA]", "test": "MTT proliferation inhibition, HELA cells, 72 h", "format": "cell-based", "details": "within the measured range (0.625-20 μg/ml)"}, "[7]": {"test": "Water solubility (statement in words)", "format": "physicochemical"}}, "data": [{"substance": "呋喃并[2 ' ',3 ' ':5 ' ',6 ' ']萘并[1 ' ',2'':7 ',8 ']环十二烷[1 ',2':5,6]萘并[1,2-b]呋喃-10,11,21,22-四酮,6,7,8,9,19,20-六氢-1,12,17-三甲基-6-亚甲基-,(17E)- [四氢甘西鼠尾新酮A]", "values": [{"measurement": "inhibition, concentration dependence", "setting": "[1]; Figure 3, 0.625-20 μg/ml", "value": "呈剂量依赖性"}, {"measurement": "IC50", "setting": "[1]; MTT", "value": 1.239, "unit": "µg/mL"}, {"measurement": "inhibition, concentration dependence", "setting": "[2]; Figure 3, 0.625-20 μg/ml", "value": "呈剂量依赖性"}, {"measurement": "IC50", "setting": "[2]; MTT", "value": 1.388, "unit": "µg/mL"}, {"measurement": "inhibition, concentration dependence", "setting": "[3]; Figure 3, 0.625-20 μg/ml", "value": "呈剂量依赖性"}, {"measurement": "IC50", "setting": "[3]; MTT", "value": 1.9, "unit": "µg/mL"}, {"measurement": "inhibition, concentration dependence", "setting": "[4]; Figure 3, 0.625-20 μg/ml", "value": "呈剂量依赖性"}, {"measurement": "IC50", "setting": "[4]; MTT", "value": 1.131, "unit": "µg/mL"}, {"measurement": "in vitro inhibitory activity", "setting": "[5]", "value": "体外抑制活性较弱"}, {"measurement": "in vitro inhibitory activity", "setting": "[6]", "value": "在测量范围内未发现抑制活性"}, {"measurement": "water solubility", "setting": "[7]", "value": "水溶性较差"}]}]}
